Source: ChEMBL document CHEMBL4043156, “Functionalization of peptide nucleolipid bioconjugates and their structure anti-cancer activity relationship studies” (Bioorg Med Chem Lett, 2017)
The source made the active and inactive calls. The calls are words filed in the database; no cut-off is given here.

Assays:
[1] = test system: MM1.S; assay: Induction of apoptosis in human MM1S cells at 2.5 uM after 24 hrs by Annexin V-FITC/propidium iodide based FACS analysis; type: functional, cell-based
[2] = test system: MM1.S; assay: Induction of apoptosis in human MM1S cells assessed as increase in necrotic cells at 2.5 uM after 24 hrs by Annexin V-FITC/propidium iodide based FACS analysis; type: functional, cell-based

Row | Compound | Activity [1] | Activity [2]
1 | Cc1cn([C@H]2C[C@H](OCCNCc3c[nH]cn3)[C@@H](C(=O)NCCCC[C@@H](NC(=O)[C@@H](C)NC(=O)[C@@H](CCCCN)NC(=O)[C@@H](C)NC(=O)[C@@H](CC(C)C)NC(=O)[C@@H](CCCCN)NC(=O)[C@@H](C)NC(=O)[C@@H](CC(C)C)NC(=O)[C@@H](CCCCN)NC(=O)CCCCCN)C(=O)O)O2)c(=O)[nH]c1=O | Active | Active
2 | CNCCO[C@H]1C[C@H](n2cc(C)c(=O)[nH]c2=O)O[C@@H]1C(=O)NCCCC[C@@H](NC(=O)[C@@H](C)NC(=O)[C@@H](CCCCN)NC(=O)[C@@H](C)NC(=O)[C@@H](CC(C)C)NC(=O)[C@@H](CCCCN)NC(=O)[C@@H](C)NC(=O)[C@@H](CC(C)C)NC(=O)[C@@H](CCCCN)NC(=O)CCCCCN)C(=O)O | inactive | inactive
3 | CCCCCCCCNCCO[C@H]1C[C@H](n2cc(C)c(=O)[nH]c2=O)O[C@@H]1C(=O)NCCCC[C@@H](NC(=O)[C@@H](C)NC(=O)[C@@H](CCCCN)NC(=O)[C@@H](C)NC(=O)[C@@H](CC(C)C)NC(=O)[C@@H](CCCCN)NC(=O)[C@@H](C)NC(=O)[C@@H](CC(C)C)NC(=O)[C@@H](CCCCN)NC(=O)CCCCCN)C(=O)O | inactive | inactive
4 | Cc1cn([C@H]2C[C@H](OCCNCCCNCCCCNCCCN)[C@@H](C(=O)NCCCC[C@@H](NC(=O)[C@@H](C)NC(=O)[C@@H](CCCCN)NC(=O)[C@@H](C)NC(=O)[C@@H](CC(C)C)NC(=O)[C@@H](CCCCN)NC(=O)[C@@H](C)NC(=O)[C@@H](CC(C)C)NC(=O)[C@@H](CCCCN)NC(=O)CCCCCN)C(=O)O)O2)c(=O)[nH]c1=O | inactive | inactive
5 | Cc1cn([C@H]2C[C@H](OCCNCCCN)[C@@H](C(=O)NCCCC[C@@H](NC(=O)[C@@H](C)NC(=O)[C@@H](CCCCN)NC(=O)[C@@H](C)NC(=O)[C@@H](CC(C)C)NC(=O)[C@@H](CCCCN)NC(=O)[C@@H](C)NC(=O)[C@@H](CC(C)C)NC(=O)[C@@H](CCCCN)NC(=O)CCCCCN)C(=O)O)O2)c(=O)[nH]c1=O | inactive | inactive
